The text below walks through data of ChEMBL document CHEMBL2016521, “Preparation, gram-negative antibacterial activity, and hydrolytic stability of novel siderophore-conjugated monocarbam diols” (ACS Med Chem Lett, 2011).

Some results are limits rather than exact numbers.

Data set [1] concerns Pseudomonas aeruginosa. The data set can be described thus: Antibacterial activity against Pseudomonas aeruginosa. It is filed as functional.
Data set [2] has as its system Pseudomonas aeruginosa. The data set can be described thus: Antibacterial activity against imipenem-sensitive Pseudomonas aeruginosa isolate 1091-05 infected in sc dosed neutropenic-C3H/HeN mouse assessed as mouse survival administered 4 hrs post infection followed by BID dosing for two days measured on day 10. It is filed as functional. Particulars: isolate 1091-05, sc, read-out: PD50.

Data set [3] relates to Klebsiella pneumoniae. The data set can be described thus: Antibacterial activity against Klebsiella pneumoniae 1000-02. Format: functional.
The test system of data set [4] is Pseudomonas aeruginosa. The data set can be described thus: Antibacterial activity against Pseudomonas aeruginosa isolate 1091-05. Format: functional.
Data set [5] concerns Acinetobacter baumannii. The data set can be described thus: Antibacterial activity against Acinetobacter baumannii AB-3167. It is filed as functional.
Data set [6] relates to Pseudomonas aeruginosa. The data set can be described thus: Antibacterial activity against imipenem-sensitive Pseudomonas aeruginosa isolate 1091-05 infected in ip dosed SF-1 mouse assessed as survival of animal administered 0.5 and 4 hrs post infected measured on day 4. It is filed as functional. Particulars: isolate 1091-05, ip, read-out: PD50.
Data set [7] in a line: Fraction unbound in mouse plasma at 1 uM by LC-MS/MS analysis. It is filed as ADME, cell-free.

As a reminder, the MIC90 is the lowest concentration that inhibits either 90% of growth or 90% of the strains tested, depending on the study. Lower therefore signals greater potency. As a reminder, the MIC is the smallest concentration in the dilution series that meets the test's criterion for growth inhibition. Read a high MIC as a less susceptible organism. As a reminder, the fraction unbound is the share of the substance not bound to proteins or other matrix. A higher fraction unbound goes with weak binding. In the case of `Cn1c(-c2cc(=O)c(O)c[nH]2)nn(S(=O)(=O)[N-]C(=O)N2C[C@H](NC(=O)/C(=N\OC(C)(C)C(=O)[O-])c3csc(N)n3)C2=O)c1=O.[Na+].[Na+]`, the MIC90 in data set [1] was found to be 2 µg/mL. The results for the ED50 in data set [2] and in data set [6] were over 150 mg/kg and 4 mg/kg, respectively. Further, the figures for the MIC in data set [3], in data set [4] and in data set [5] were 0.5 µg/mL, 0.5 µg/mL and 1 µg/mL, respectively. The molecule further yielded a fraction unbound at 1 µM in data set [7] of 0.26.
As to `CC(C)(O/N=C(\C(=O)N[C@H]1CN(C(=O)[N-]S(=O)(=O)n2nc(-c3cc(=O)c(O)c[nH]3)n(CC(F)(F)F)c2=O)C1=O)c1csc(N)n1)C(=O)[O-].[Na+].[Na+]`, the MIC in data set [4] is 0.25 µg/mL.
With `CC(C)(C)CCn1c(-c2cc(=O)c(O)c[nH]2)nn(S(=O)(=O)[N-]C(=O)N2C[C@H](NC(=O)/C(=N\OC(C)(C)C(=O)[O-])c3csc(N)n3)C2=O)c1=O.[Na+].[Na+]`, the MIC in data set [4] is 0.5 µg/mL.
Take `CCN(CC)CCn1c(-c2cc(=O)c(O)c[nH]2)nn(S(=O)(=O)[N-]C(=O)N2C[C@H](NC(=O)/C(=N\OC(C)(C)C(=O)[O-])c3csc(N)n3)C2=O)c1=O.[Na+].[Na+]`: in data set [4], the MIC is 1 µg/mL.
In data set [4], `CC(C)(O/N=C(\C(=O)N[C@H]1CN(C(=O)[N-]S(=O)(=O)n2nc(-c3cc(=O)c(O)c[nH]3)n(CCCO)c2=O)C1=O)c1csc(N)n1)C(=O)[O-].[Na+].[Na+]` returned an MIC of 0.25 µg/mL. This MIC lies about 4-fold lower than the previous one.
In the case of `CC(C)(O)Cn1c(-c2cc(=O)c(O)c[nH]2)nn(S(=O)(=O)[N-]C(=O)N2C[C@H](NC(=O)/C(=N\OC(C)(C)C(=O)[O-])c3csc(N)n3)C2=O)c1=O.[Na+].[Na+]`, the MIC in data set [4] turned out to be 0.25 µg/mL.
In data set [4], `Cc1cc(Cn2c(-c3cc(=O)c(O)c[nH]3)nn(S(=O)(=O)[N-]C(=O)N3C[C@H](NC(=O)/C(=N\OC(C)(C)C(=O)[O-])c4csc(N)n4)C3=O)c2=O)no1.[Na+].[Na+]` gave an MIC of 2 µg/mL.
`Cc1cc(Cn2c(-c3cc(=O)c(O)c[nH]3)nn(S(=O)(=O)[N-]C(=O)N3C[C@H](NC(=O)/C(=N\OC(C)(C)C(=O)[O-])c4csc(N)n4)C3=O)c2=O)nn1C.[Na+].[Na+]`: the MIC in data set [4] was determined as 8 µg/mL.
Molecule `C[C@H](O)Cn1c(-c2cc(=O)c(O)c[nH]2)nn(S(=O)(=O)[N-]C(=O)N2C[C@H](NC(=O)/C(=N\OC(C)(C)C(=O)[O-])c3csc(N)n3)C2=O)c1=O.[Na+].[Na+]` came in with an MIC90 in data set [1] of 1 µg/mL. Further, the ED50 in data set [2] amounted to 15.7 mg/kg. Further, the MIC in data set [3] was determined as 0.25 µg/mL; in data set [4], 0.125 µg/mL; in data set [5], 1 µg/mL.
The molecule `CC(C)(O/N=C(\C(=O)N[C@H]1CN(C(=O)[N-]S(=O)(=O)n2nc(-c3cc(=O)c(O)c[nH]3)n(C[C@H](O)CO)c2=O)C1=O)c1csc(N)n1)C(=O)[O-].[Na+].[Na+]` gave an MIC90 in data set [1] of 1 µg/mL. Besides, the ED50 in data set [2] came to 18.6 mg/kg. In addition, the MIC came out at 0.5 µg/mL in data set [3], 0.125 µg/mL in data set [4] and 0.5 µg/mL in data set [5].
